Experimental findings from patent US20230105869A1, “C5aR INHIBITOR REDUCTION OF URINARY sCD163” (CHEMOCENTRYX, INC., priority 2017, published 2023) are described below.

The subject of test [1] is urinary sCD163. The test can be described thus: Urine sCD163/creatinine ratio (ELISA) in clinical trial of AAV patients. The format is in vivo, human. Particulars: for Urine sCD163/creatinine, Geo mean: all on IV cyclophosphamide or rituximab; for Time course of decrease of urine sCD163 (sCD163/creatinine), in words: versus baseline. The protocol: The clinical trial results presented herein comprised 3 patient groups: (1) Full dose prednisone (60 mg), standard of care; (2) Avacopan 30 mg b.i.d. plus low dose prednisone (20 mg); (3) Avacopan 30 mg b.i.d. plus no prednisone. All patients received either IV cyclophosphamide or IV rituximab. sCD163 (ELISA) and creatinine were measured pre-dose, and at days 8, 15, 29, 57, and 85. The groupings are further described below in Table 1. [table] Mid-stream urine samples were collected with a clean catch method and were shipped to the central laboratory refrigerated the same day for analysis of creatinine, albumin and UACR. Another fraction of urine was centrifuged at 1200 g and 2-8° C. for 10 minutes. Supernatant was aliquoted into cryovials and stored at -70° C. until analysis. Urine sCD163 and MCP-1 were analyzed by ELISA in complete subject sets using ELISA kits from R&D systems. Urine sCD163/creatinine ratios, UACR, and urine MCP-1/creatinine ratios were log transformed for normal distribution. Change from baseline in urine sCD163/creatinine ratios for each time point within group was analyzed by the mixed effects model for repeated measures. P<0.05 was considered as statistically significant.
(In general: ELISA stands for enzyme-linked immunosorbent assay.)

The test system of test [2] is ANCA-associated vasculitis (AAV). In words: Disease activity and health-related quality of life in clinical trial of AAV patients. Type of test: in vivo, human. As for the experimental part:
The clinical trial results presented herein comprised 3 patient groups: (1) Full dose prednisone (60 mg), standard of care; (2) Avacopan 30 mg b.i.d. plus low dose prednisone (20 mg); (3) Avacopan 30 mg b.i.d. plus no prednisone. All patients received either IV cyclophosphamide or IV rituximab. sCD163 (ELISA) and creatinine were measured pre-dose, and at days 8, 15, 29, 57, and 85. The groupings are further described below in Table 1. [table] […] Panel A plots the Birmingham Vasculitis Activity Score; Panel B plots the Urinary Albumin: creatinine Ratio; Panel C plots the Health-related quality-of-life measurement EQ-5D-5L visual analog scale , expressed as mean +/- SEM over the treatment period; Panel D and Panel E plot the health-related quality-of-life measurement Medical Outcomes Study SF-36 version 2 Physical Functioning and Role Emotional components, expressed as mean +/- SEM over the treatment period.

[3] abbreviates: D8, Avacopan 30 mg BID where given.
Where [4] appears, read: D15, Avacopan 30 mg BID where given.
The mark [5] stands for this setting: D29, Avacopan 30 mg BID where given.
Setting [6] is: D57, Avacopan 30 mg BID where given.
Where [7] appears, read: D85, Avacopan 30 mg BID where given.

“Also recorded” adds a separate entry of the source. Marks after values point to notes of the source that are not given here.

`C[C@]12C=CC(=O)C=C1CC[C@@H]1[C@@H]2C(=O)C[C@@]2(C)[C@H]1CC[C@]2(O)C(=O)CO` [Placebo + FD Prednisone, Prednisone, reference compound]: the “Urine sCD163/creatinine, Geo mean” value in test [1] (setting [3]) was 300 ng/mmol; in test [1] (setting [4]), 249 ng/mmol; in test [1] (setting [5]) it was 220 ng/mmol; in test [1] (setting [6]) it was 116*** ng/mmole; in test [1] (setting [7]) it was 120** ng/mmole. The “Time course of decrease of urine sCD163 (sCD163/creatinine), in words” value in test [1] is on record as “decreased much later (by week 8)”; in test [1] (listed as full-dose prednisone), “did not show improvement in urinary sCD163 until day 57”.
On to `Cc1ccc(NC(=O)[C@H]2CCCN(C(=O)c3c(C)cccc3F)[C@H]2c2ccc(NC3CCCC3)cc2)cc1C(F)(F)F` [Avacopan], for which the “Urine sCD163/creatinine, Geo mean” value in test [1] (setting [3]) is 180* ng/mmole; in test [1] (setting [4]), 165* ng/mmole; in test [1] (setting [5]) it was 117** ng/mmole; in test [1] (setting [6]), 125* ng/mmole; in test [1] (setting [7]), 97* ng/mmole. The “Time course of decrease of urine sCD163 (sCD163/creatinine), in words” value in test [1] was “reduced sCD163/creatinine markedly by day 8; also recorded: rapid reduction of sCD163; also recorded: decreased within one week”. Further, the “Disease activity (Birmingham Vasculitis Activity Score), in words” value in test [2] (FIG. 1A) is given as “rapid decrease in diseases activity”. Also, in test [2] (FIGS. 1C-1E), the “Health-related quality of life (EQ-5D-5L, SF-36 v2), in words” value was “significant improvement in health-related quality of life”.
